Measurements taken from PubChem BioAssay (NCI).
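Following 48 hours of exposure in 96-well plates, responses at five concentrations were used to interpolate endpoints linearly. GI50 = concentration required for 50% inhibition of growth. TGI is the concentration that stops growth completely.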

How the values were obtained:
Test in all cases: NCI tumour cell line growth inhibition, 48 h
[1] = test system: 786-0 renal
[2] = test system: A498 renal
[3] = test system: A549 NSCLC
[4] = test system: ACHN renal
[5] = test system: BT-549 breast
[6] = test system: CAKI-1 renal
[7] = test system: CCRF-CEM leukemia
[8] = test system: COLO 205 colon
[9] = test system: DU-145 prostate
[10] = test system: EKVX NSCLC
[11] = test system: HCC-2998 colon
[12] = test system: HCT-116 colon
[13] = test system: HCT-15 colon
[14] = test system: HL-60(TB) leukemia
[15] = test system: HOP-62 NSCLC
[16] = test system: HOP-92 NSCLC
[17] = test system: HS 578T breast
[18] = test system: HT29 colon
[19] = test system: IGROV1 ovarian
[20] = test system: K-562 leukemia
[21] = test system: KM12 colon
[22] = test system: LOX IMVI melanoma
[23] = test system: M14 melanoma
[24] = test system: MALME-3M melanoma
[25] = test system: MCF7 breast
[26] = test system: MDA-MB-231 breast
[27] = test system: MDA-MB-435
[28] = test system: MDA-MB-468 breast
[29] = test system: MOLT-4 leukemia
[30] = test system: NCI-H226 lung
[31] = test system: NCI-H23 lung
[32] = test system: NCI-H460 lung
[33] = test system: NCI-H522 lung
[34] = test system: NCI/ADR-RES ovarian
[35] = test system: OVCAR-3 ovarian
[36] = test system: OVCAR-4 ovarian
[37] = test system: OVCAR-5 ovarian
[38] = test system: OVCAR-8 ovarian
[39] = test system: PC-3 prostate
[40] = test system: RPMI-8226 leukemia
[41] = test system: RXF 393 renal
[42] = test system: SF-268 CNS
[43] = test system: SF-295 CNS
[44] = test system: SF-539 CNS
[45] = test system: SK-MEL-2 melanoma
[46] = test system: SK-MEL-28 melanoma
[47] = test system: SK-MEL-5 melanoma
[48] = test system: SK-OV-3 ovarian
[49] = test system: SN12C renal
[50] = test system: SNB-19 CNS
[51] = test system: SNB-75 CNS
[52] = test system: SR leukemia
[53] = test system: SW-620 colon
[54] = test system: T-47D breast
[55] = test system: TK-10 renal
[56] = test system: U251 CNS
[57] = test system: UACC-257 melanoma
[58] = test system: UACC-62 melanoma
[59] = test system: UO-31 renal

**Q.** For `O=C(N=Nc1c(O)[nH]c2ccc(Br)cc12)c1ccc2nc(-c3ccc(Cl)cc3)[nH]c2c1`, which GI50 [1] is on record?
**A.** 29.6 µM

**Q.** And the TGI [1]?
**A.** > 38 µM

**Q.** And the GI50 [2]?
**A.** > 38 µM

**Q.** What about the TGI [2] of the same compound?
**A.** > 38 µM

**Q.** What about the GI50 [3] of the same compound?
**A.** > 38 µM

**Q.** And the TGI [3]?
**A.** > 38 µM

**Q.** And the GI50 [4]?
**A.** > 38 µM

**Q.** What about the TGI [4] of the same compound?
**A.** > 38 µM

**Q.** And the GI50 [5]?
**A.** > 38 µM

**Q.** And the TGI [5]?
**A.** > 38 µM

**Q.** And the GI50 [6]?
**A.** > 38 µM

**Q.** And the TGI [6]?
**A.** > 38 µM

**Q.** And the GI50 [7]?
**A.** 8.77 µM

**Q.** What about the TGI [7] of the same compound?
**A.** > 38 µM

**Q.** What about the GI50 [8] of the same compound?
**A.** 26.2 µM

**Q.** And the TGI [8]?
**A.** > 38 µM

**Q.** And the GI50 [9]?
**A.** 29.6 µM

**Q.** What about the TGI [9] of the same compound?
**A.** > 38 µM

**Q.** What about the GI50 [10] of the same compound?
**A.** > 38 µM

**Q.** And the TGI [10]?
**A.** > 38 µM

**Q.** And the GI50 [11]?
**A.** 32.6 µM

**Q.** What about the TGI [11] of the same compound?
**A.** > 38 µM

**Q.** And the GI50 [12]?
**A.** 15.2 µM

**Q.** And the TGI [12]?
**A.** > 38 µM

**Q.** And the GI50 [13]?
**A.** > 38 µM

**Q.** And the TGI [13]?
**A.** > 38 µM

**Q.** What about the GI50 [14] of the same compound?
**A.** > 38 µM

**Q.** What about the TGI [14] of the same compound?
**A.** > 38 µM

**Q.** And the GI50 [15]?
**A.** > 38 µM

**Q.** What about the TGI [15] of the same compound?
**A.** > 38 µM

**Q.** And the GI50 [16]?
**A.** > 38 µM

**Q.** And the TGI [16]?
**A.** > 38 µM

**Q.** What about the GI50 [17] of the same compound?
**A.** > 38 µM

**Q.** And the TGI [17]?
**A.** > 38 µM

**Q.** And the GI50 [18]?
**A.** 15.2 µM

**Q.** And the TGI [18]?
**A.** > 38 µM

**Q.** What about the GI50 [19] of the same compound?
**A.** > 38 µM

**Q.** And the TGI [19]?
**A.** > 38 µM

**Q.** What about the GI50 [20] of the same compound?
**A.** 16.8 µM

**Q.** What about the TGI [20] of the same compound?
**A.** > 38 µM

**Q.** And the GI50 [21]?
**A.** > 38 µM

**Q.** What about the TGI [21] of the same compound?
**A.** > 38 µM

**Q.** And the GI50 [22]?
**A.** 11.3 µM

**Q.** And the TGI [22]?
**A.** > 38 µM

**Q.** And the GI50 [23]?
**A.** > 38 µM

**Q.** And the TGI [23]?
**A.** > 38 µM

**Q.** And the GI50 [24]?
**A.** > 38 µM

**Q.** And the TGI [24]?
**A.** > 38 µM

**Q.** What about the GI50 [25] of the same compound?
**A.** 8.14 µM

**Q.** And the TGI [25]?
**A.** > 38 µM

**Q.** What about the GI50 [26] of the same compound?
**A.** > 38 µM

**Q.** What about the TGI [26] of the same compound?
**A.** > 38 µM

**Q.** What about the GI50 [27] of the same compound?
**A.** 29.6 µM

**Q.** And the TGI [27]?
**A.** > 38 µM

**Q.** And the GI50 [28]?
**A.** 8.03 µM

**Q.** And the TGI [28]?
**A.** 37.9 µM

**Q.** What about the GI50 [29] of the same compound?
**A.** 11.1 µM

**Q.** What about the TGI [29] of the same compound?
**A.** > 38 µM

**Q.** And the GI50 [30]?
**A.** > 38 µM

**Q.** What about the TGI [30] of the same compound?
**A.** > 38 µM

**Q.** And the GI50 [31]?
**A.** 34 µM

**Q.** And the TGI [31]?
**A.** > 38 µM

**Q.** What about the GI50 [32] of the same compound?
**A.** 21.7 µM

**Q.** And the TGI [32]?
**A.** > 38 µM

**Q.** And the GI50 [33]?
**A.** > 38 µM

**Q.** What about the TGI [33] of the same compound?
**A.** > 38 µM

**Q.** And the GI50 [34]?
**A.** > 38 µM

**Q.** And the TGI [34]?
**A.** > 38 µM

**Q.** And the GI50 [35]?
**A.** > 38 µM

**Q.** And the TGI [35]?
**A.** > 38 µM

**Q.** And the GI50 [36]?
**A.** 12 µM

**Q.** And the TGI [36]?
**A.** > 38 µM

**Q.** And the GI50 [37]?
**A.** > 38 µM

**Q.** And the TGI [37]?
**A.** > 38 µM

**Q.** What about the GI50 [38] of the same compound?
**A.** 29.7 µM

**Q.** What about the TGI [38] of the same compound?
**A.** > 38 µM

**Q.** What about the GI50 [39] of the same compound?
**A.** > 38 µM

**Q.** And the TGI [39]?
**A.** > 38 µM

**Q.** And the GI50 [40]?
**A.** > 38 µM

**Q.** And the TGI [40]?
**A.** > 38 µM

**Q.** And the GI50 [41]?
**A.** > 38 µM

**Q.** And the TGI [41]?
**A.** > 38 µM

**Q.** And the GI50 [42]?
**A.** 10.8 µM

**Q.** And the TGI [42]?
**A.** > 38 µM

**Q.** And the GI50 [43]?
**A.** > 38 µM

**Q.** What about the TGI [43] of the same compound?
**A.** > 38 µM

**Q.** What about the GI50 [44] of the same compound?
**A.** > 38 µM

**Q.** What about the TGI [44] of the same compound?
**A.** > 38 µM

**Q.** What about the GI50 [45] of the same compound?
**A.** > 38 µM

**Q.** What about the TGI [45] of the same compound?
**A.** > 38 µM

**Q.** What about the GI50 [46] of the same compound?
**A.** > 38 µM

**Q.** What about the TGI [46] of the same compound?
**A.** > 38 µM

**Q.** And the GI50 [47]?
**A.** > 38 µM

**Q.** And the TGI [47]?
**A.** > 38 µM

**Q.** And the GI50 [48]?
**A.** > 38 µM

**Q.** What about the TGI [48] of the same compound?
**A.** > 38 µM

**Q.** What about the GI50 [49] of the same compound?
**A.** > 38 µM

**Q.** What about the TGI [49] of the same compound?
**A.** > 38 µM

**Q.** And the GI50 [50]?
**A.** 17.1 µM

**Q.** What about the TGI [50] of the same compound?
**A.** > 38 µM

**Q.** And the GI50 [51]?
**A.** 8.44 µM

**Q.** What about the TGI [51] of the same compound?
**A.** > 38 µM

**Q.** What about the GI50 [52] of the same compound?
**A.** > 38 µM

**Q.** What about the TGI [52] of the same compound?
**A.** > 38 µM

**Q.** And the GI50 [53]?
**A.** 14.5 µM

**Q.** What about the TGI [53] of the same compound?
**A.** > 38 µM

**Q.** And the GI50 [54]?
**A.** 11.8 µM

**Q.** What about the TGI [54] of the same compound?
**A.** > 38 µM

**Q.** What about the GI50 [55] of the same compound?
**A.** > 38 µM

**Q.** What about the TGI [55] of the same compound?
**A.** > 38 µM

**Q.** What about the GI50 [56] of the same compound?
**A.** 19.9 µM

**Q.** What about the TGI [56] of the same compound?
**A.** > 38 µM

**Q.** And the GI50 [57]?
**A.** > 38 µM

**Q.** And the TGI [57]?
**A.** > 38 µM

**Q.** What about the GI50 [58] of the same compound?
**A.** > 38 µM

**Q.** What about the TGI [58] of the same compound?
**A.** > 38 µM

**Q.** And the GI50 [59]?
**A.** > 38 µM

**Q.** And the TGI [59]?
**A.** > 38 µM
